Experimental data from patent publication US11161849B2, “Inhibiting the transient receptor potential al ion channel” (Eli Lilly and Company, priority 2018, dated 2021).
pIC50: −log10 of the molar value.

Assays:
[1] = target: human TRPA1 (Homo sapiens (Human), UniProt O75762); test: Inhibition of human TRPA1 in whole cell patch configuration (10 μM AITC activation); assay type: cell-based; conditions: current activation 10 μM AITC, tested concentrations 320 pM to 3.2 μM, read-out: hTRPA1 IC50
Method: Data for TRPA1 inhibition was obtained by this method for the indicated compounds of Formula (I), (II), or (III), with the relevant data included in Table 2 below. All currents were recorded in whole-cell configuration using EPC-9 and EPC-10 amplifiers and Patchmaster software (HEKA) or similar. […] The standard pipette solution consisted of 140 mM CsAsp, 10 mM EGTA, 10 mM HEPES, […], 1.91 mM CaCl2, and up to 0.3 mM Na2GTP, with pH adjusted to 7.2 with CsOH. In addition, a solution containing 145 mM CsCl, 10 mM HEPES, 10 mM EGTA, and up to 0.3 mM Na2GTP and 1 mM MgCl2 (pH 7.2 adjusted with CsOH) can be used. The standard bath solution contained 150 mM NaCl, 10 mM HEPES, 10 mM glucose, 4.5 mM KCl, 1 mM EGTA, 3 mM MgCl2, with pH adjusted to 7.4 with NaOH. In some instances, 2 mM CaCl2 was added in place of EGTA and the concentration of MgCl2 was reduced to 1 mM.
Data were collected either by continuous recordings at −60 mV or by applying voltage ramps from a holding potential of −40 mV every 4 s. Continuous recordings were collected at 400 Hz and digitally filtered off-line at 10 Hz for presentation. Voltage ramps were applied from −100 mV or −80 mV to +100 mV or +80 mV over the course of 400 ms, and data were collected at 10 kHz and filtered at 2.9 kHz. Inward and outward currents were analyzed from the ramps at −80 and 80 mV, respectively. Liquid junction potential correction was not used.
Solutions were switched using a gravity-fed continuous focal perfusion system. To achieve rapid temperature changes, two temperature control, and perfusion systems were employed simultaneously. For temperatures greater than or equal to 22° C., a Warner Instruments bipolar temperature controller (TC-344B) and inline heater (SHM-8) were used. For temperatures below 22° C. a Warner Instruments temperature controller (CL-100) and thermal cooling module (TCM-1) were used. Temperatures were confirmed using a thermistor (Warner Instruments, TA-29), with temperatures at the recorded cell estimated to be within +/−2° C. of those reported.
The antagonist effects of compounds of Formula (I), (II), or (III) against human TRPA1 (“hTRPA1”) in a whole cell patch configuration were evaluated using the in vitro assay described above. The current activation tested was 10 μM AITC, and the tested concentrations ranged from 320 pM to 3.2 μM.

[2] = Solubility in Normal Ringer Solution; assay type: physicochemical; conditions: saline or isotonic, kinetic from dmso stock, pH 7.4 at room temperature, 40 minutes incubation, from 10 mM DMSO stock
Method: Compounds of the invention were also tested for solubility in Normal Ringer Solution. Briefly, compound solubility was determined by dissolving a standard range of volumes of 10 mM DMSO stock of compounds in Normal Ringer Solution (pH 7.4 at room temperature). Following vortex and incubation for 40 minutes at room temperature, solutions were filtered, quenched with acetonitrile, and analyzed by Liquid Chromatography. Solubility limits were determined by comparison to a standard curve. […] Solubility is reported as “greater than” if the observed increase between the last 2 dilutions tested is greater than 2-fold.

Chain of human TRPA1 (O75762 whole entry): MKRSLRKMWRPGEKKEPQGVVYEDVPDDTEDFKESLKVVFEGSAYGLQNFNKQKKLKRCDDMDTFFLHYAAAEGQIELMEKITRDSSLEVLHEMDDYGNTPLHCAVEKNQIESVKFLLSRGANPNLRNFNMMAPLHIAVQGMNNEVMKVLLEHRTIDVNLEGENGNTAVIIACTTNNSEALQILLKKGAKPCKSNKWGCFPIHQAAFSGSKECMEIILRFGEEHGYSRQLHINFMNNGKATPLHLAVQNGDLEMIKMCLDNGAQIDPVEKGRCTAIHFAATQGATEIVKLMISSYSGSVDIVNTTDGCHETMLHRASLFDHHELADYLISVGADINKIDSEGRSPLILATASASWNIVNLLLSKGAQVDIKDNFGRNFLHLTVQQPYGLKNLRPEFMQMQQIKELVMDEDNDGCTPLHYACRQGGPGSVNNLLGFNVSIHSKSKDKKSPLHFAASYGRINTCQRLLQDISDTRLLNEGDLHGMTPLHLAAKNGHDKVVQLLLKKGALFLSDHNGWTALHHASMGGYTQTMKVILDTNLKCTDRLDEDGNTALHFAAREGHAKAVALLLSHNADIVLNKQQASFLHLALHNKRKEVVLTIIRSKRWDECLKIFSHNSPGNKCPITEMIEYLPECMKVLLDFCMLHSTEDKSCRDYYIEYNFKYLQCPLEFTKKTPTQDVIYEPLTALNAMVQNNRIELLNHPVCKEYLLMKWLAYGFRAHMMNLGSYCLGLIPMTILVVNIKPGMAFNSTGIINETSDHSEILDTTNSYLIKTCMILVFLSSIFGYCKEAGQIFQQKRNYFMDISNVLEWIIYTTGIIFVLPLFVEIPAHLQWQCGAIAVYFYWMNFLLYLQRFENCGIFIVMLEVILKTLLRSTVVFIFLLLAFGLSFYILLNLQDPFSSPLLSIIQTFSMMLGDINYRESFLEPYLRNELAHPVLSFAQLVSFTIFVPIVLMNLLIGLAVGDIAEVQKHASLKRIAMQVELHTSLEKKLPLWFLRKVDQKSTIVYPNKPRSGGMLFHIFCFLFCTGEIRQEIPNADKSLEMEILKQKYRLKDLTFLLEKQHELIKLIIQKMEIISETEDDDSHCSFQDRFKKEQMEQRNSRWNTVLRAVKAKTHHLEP

Row | SMILES | pIC50 [1] | solubility at 40 min [2] [µM]
1 | Cc1noc(Cn2c(=O)[nH]c3ncn(C(C)C(=O)Nc4cncc(-c5cnc(C(F)(F)F)nc5)n4)c3c2=O)n1 (centres unmarked) [Compound 100] | < 5.00 | > 31.3
2 | Cc1noc(Cn2c(=O)[nH]c3ncn(C(C)C(=O)Nc4cccc(-c5cnc(C(F)(F)F)nc5)n4)c3c2=O)n1 (centres unmarked) [Compound 101] | 6.25 | > 31.3
3 | C[C@@H](C(=O)Nc1cncc(-c2cnc(C(F)(F)F)nc2)n1)n1cnc2c1c(=O)n(CC(N)=O)c(=O)n2C [Compound 104] | 5.15 | > 31.3
4 | C[C@@H](C(=O)Nc1cccc(-c2cnc(C(F)(F)F)nc2)n1)n1cnc2c1c(=O)n(CC(N)=O)c(=O)n2C [Compound 105] | 6.25 | > 31.3
5 | [2H]C([2H])([2H])n1c(=O)n(Cc2nc(C)no2)c(=O)c2c1ncn2C(C)C(=O)Nc1cncc(-c2cnc(C(F)(F)F)nc2)n1 (centres unmarked) [Compound 106] | – | > 31.3
6 | [2H]C([2H])([2H])n1c(=O)n(Cc2nc(C)no2)c(=O)c2c1ncn2C(C)C(=O)Nc1cccc(-c2cnc(C(F)(F)F)nc2)n1 (centres unmarked) [Compound 107] | – | > 31.3

Further lines, results first:

Row | pIC50 [1] | solubility at 40 min [2] [µM] | SMILES
7 | 6.76 | > 31.3 | CC(=O)NC(=O)Cn1c(=O)c2c(ncn2[C@@H](C)C(=O)Nc2cncc(-c3cnc(C(F)(F)F)nc3)n2)n(C)c1=O [Compound 102]
8 | 7.32 | > 31.3 | CC(=O)NC(=O)Cn1c(=O)c2c(ncn2[C@@H](C)C(=O)Nc2cccc(-c3cnc(C(F)(F)F)nc3)n2)n(C)c1=O [Compound 103]
